Results: patent publication US20240150293A1, “SPIROCYCLOHEXANE DERIVATIVES, PHARMACEUTICAL COMPOSITIONS CONTAINING THEM AND THEIR USES AS ANTI-APOPTOTIC INHIBITORS” (LES LABORATOIRES SERVIER, priority 2021, published 2024)
Read-outs that look alike come from different tables or passages of the source.

Key:
[1] = system: H929 multiple myeloma tumor line; assay: In vitro cytotoxicity, MTT assay (Example B, Method A); assay type: cell-based; settings: H929 cells, 48 hours exposure, read-out: C50
Description: The cytotoxicity studies were carried out on the H929 multiple myeloma tumor line.
The cells are distributed onto microplates and exposed to the test compounds for 48 hours. The cell viability is then quantified by a colorimetric assay, the Microculture Tetrazolium Assay (Carmichael et al, Cancer Res. 1987, 47, 939-942).
The results are expressed in C50 which means concentration corresponding to […] of effect/inhibition.

[2] = target: Cy5-labelled Mcl1 (amino acids 171-321) C286S protein (UniProtKB Q07820) (Homo sapiens (Human), UniProt Q07820, C286S); assay: Inhibition of Mcl-1 by the fluorescence quenching assay (Example A, Method B); assay type: binding
Cy5-labelled Mcl1 (amino acids 171-321) C286S protein, sequence (Q07820 171-321 C286S): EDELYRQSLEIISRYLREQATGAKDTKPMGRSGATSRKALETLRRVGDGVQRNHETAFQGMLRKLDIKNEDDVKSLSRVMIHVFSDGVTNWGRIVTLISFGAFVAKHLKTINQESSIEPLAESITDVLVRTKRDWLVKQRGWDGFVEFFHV
In short: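 Cy5-labelled Mcl1 171-321 C286S (1 nM) quenched by TQ5WS-labelled PUMA peptide (10, 20 or 400 nM); displacement raises fluorescence (Ex 620/Em 680 nm). Buffer 10 mM HEPES, 150 mM NaCl, 0.05% Tween 20, pH 7.4, 5% DMSO; 2 h at room temperature, 11-point curves, IC50 converted to Ki (cKi/eKi).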

Structure (SMILES)	Ki [2] [nM]	IC50 ([1]; Homo sapiens, NCI-H929, 48 h) [nM]	IC50 [1] [nM]
C[C@@H](COc1ccnc2c1CC(C)(C)C2)C[C@H]1Cc2ccccc2[C@]12CC[C@@](Nc1cccc(Cl)c1)(C(=O)O)CC2 [Example 611, (1r,2′S,4S)-4-(3-chloroanilino)-2′-{(2R)-3-[(6,6-dimethyl-6,7-dihydro-5H-cyclopenta[b]pyridin-4-yl)oxy]-2-methylpropyl}-2′,3′-dihydrospiro[cyclohexane-1,1′-indene]-4-carboxylic acid]	12.3	1670	
O=C(O)[C@]1(Nc2cccc(Cl)c2)CC[C@]2(CC1)C(CC(COc1ccnc3ccsc13)Cc1ccccc1)=Cc1ccccc12 (single isomer, unassigned) [Example 559, (1r,4r)-2′-{2-benzyl-3-[(thieno[3,2-b]pyridin-7-yl)oxy]propyl}-4-(3-chloroanilino)spiro[cyclohexane-1,1′-indene]-4-carboxylic acid]	73	30000	
C[C@@H]1CCCc2nccc(OCC(CC3Cc4ccccc4[C@]34CC[C@@](Nc3cccc(Cl)c3)(C(=O)O)CC4)C(F)F)c21 (single isomer, unassigned) [Example 518]	1260		12000
C[C@@H](COc1ccnc2c1[C@H](C)CCC2)CC1=Cc2c(Cl)cccc2[C@]12CC[C@@](Nc1cccc(Cl)c1)(C(=O)O)CC2 [Example 739, (1r,4R)-4′-chloro-4-(3-chloroanilino)-2′-[(2R)-2-methyl-3-{[(5R)-5-methyl-5,6,7,8-tetrahydroquinolin-4-yl]oxy}propyl]spiro[cyclohexane-1,1′-indene]-4-carboxylic acid]	1.5	87.2	
O=C(O)[C@]1(Nc2cccc(Cl)c2)CC[C@@]2(CC1)c1ccccc1CC2CC(COc1ccnc2ccsc12)C(F)F (stereo partly drawn) [Example 511, (1r,4r)-4-(3-chloroanilino)-2′-(3,3-difluoro-2-{[(thieno[3,2-b]pyridin-7-yl)oxy]methyl}propyl)-2′,3′-dihydrospiro[cyclohexane-1,1′-indene]-4-carboxylic acid]	19.9	2720	
COCC(COc1ccnc2c1CCC2)CC1Cc2ccccc2[C@]12CC[C@@](Nc1cccc(Cl)c1)(C(=O)O)CC2 (stereo partly drawn) [Example 494, (1r,4r)-4-(3-chloroanilino)-2′-(2-{[(6,7-dihydro-5H-cyclopenta[b]pyridin-4-yl)oxy]methyl}-3-methoxypropyl)-2′,3′-dihydrospiro[cyclohexane-1,1′-indene]-4-carboxylic acid]	3.62	808	
C[C@@H](COc1ccncc1C(F)(F)F)C[C@H]1Cc2ccccc2[C@]12CC[C@@](Nc1cccc(Cl)c1)(C(=O)O)CC2 [Example 578, (1r,2′S,4S)-4-(3-chloroanilino)-2′-[(2R)-2-methyl-3-{[3-(trifluoromethyl)pyridin-4-yl]oxy}propyl]-2′,3′-dihydrospiro[cyclohexane-1,1′-indene]-4-carboxylic acid]	7.84	471	
CO[C@H]1CCCc2nccc(OC[C@H](C)C[C@H]3Cc4ccccc4[C@]34CC[C@@](Nc3cccc(Cl)c3)(C(=O)O)CC4)c21 [Example 671, (1r,2′S,4S)-4-(3-chloroanilino)-2′-[(2R)-3-{[(5S)-5-methoxy-5,6,7,8-tetrahydroquinolin-4-yl]oxy}-2-methylpropyl]-2′,3′-dihydrospiro[cyclohexane-1,1′-indene]-4-carboxylic acid]	39.3	2560	
Cc1cc(C(C)O)cc2c1C=C(C[C@@H](C)COc1ccnc3c1[C@H](C)CCC3)[C@]21CC[C@](Nc2cccc(Cl)c2)(C(=O)O)CC1 (single isomer, unassigned) [Example 760]	0.198		81.7
CCCC#C[C@H](COc1ccnc2ccsc12)CC1=Cc2ccccc2[C@]12CC[C@@](Nc1cccc(Cl)c1)(C(=O)O)CC2 [Example 564, (1r,4R)-4-(3-chloroanilino)-2′-[(2R)-2-{[(thieno[3,2-b]pyridin-7-yl)oxy]methyl}hept-3-yn-1-yl]spiro[cyclohexane-1,1′-indene]-4-carboxylic acid]	29.9	16100	
COc1ccc2c(c1)[C@]1(CC[C@@](Nc3cccc(Cl)c3)(C(=O)O)CC1)[C@@H](C[C@@H](C)COc1ccnc3c1[C@@H](C)CCC3)C2 [Example 783, (1r,2′S,4S)-4-(3-chloroanilino)-6′-methoxy-2′-[(2R)-2-methyl-3-{[(5S)-5-methyl-5,6,7,8-tetrahydroquinolin-4-yl]oxy}propyl]-2′,3′-dihydrospiro[cyclohexane-1,1′-indene]-4-carboxylic acid]	10.3	430	
C[C@@H](COc1ccnc2c1[C@H](C(F)(F)F)CCC2)C[C@H]1Cc2ccccc2[C@]12CC[C@@](Nc1cccc(Cl)c1)(C(=O)O)CC2 [Example 699, (1r,2′S,4S)-4-(3-chloroanilino)-2′-[(2R)-2-methyl-3-{[(5R)-5-(trifluoromethyl)-5,6,7,8-tetrahydroquinolin-4-yl]oxy}propyl]-2′,3′-dihydrospiro[cyclohexane-1,1′-indene]-4-carboxylic acid]	1.15	115	
C[C@@H](COc1ccnc2c1[C@H](C)CCC2)C[C@H]1Cc2ccccc2[C@]12CC[C@@](Nc1ccc(F)c(Br)c1)(C(=O)O)CC2 [Example 712, (1r,2′S,4S)-4-(3-bromo-4-fluoroanilino)-2′-[(2R)-2-methyl-3-{[(5R)-5-methyl-5,6,7,8-tetrahydroquinolin-4-yl]oxy}propyl]-2′,3′-dihydrospiro[cyclohexane-1,1′-indene]-4-carboxylic acid]	0.439	74	

Further lines, with some results ahead:

Ki [2] [nM]	Structure (SMILES)	IC50 ([1]; Homo sapiens, NCI-H929, 48 h) [nM]	IC50 [1] [nM]
0.279	C[C@@H](COc1ccnc2c1[C@H](C)CC[C@H]2C)C[C@H]1Cc2cc(F)ccc2[C@]12CC[C@@](Nc1cccc(Cl)c1)(C(=O)O)CC2 [Example 773, (1r,2′S,4S)-4-(3-chloroanilino)-2′-[(2R)-3-{[(5R,8R)-5,8-dimethyl-5,6,7,8-tetrahydroquinolin-4-yl]oxy}-2-methylpropyl]-5′-fluoro-2′,3′-dihydrospiro[cyclohexane-1,1′-indene]-4-carboxylic acid]	32.2	
0.418	C[C@@H](COc1ccnc2c1[C@H](C)CC[C@H]2O)C[C@H]1Cc2ccccc2[C@]12CC[C@@](Nc1cccc(Cl)c1)(C(=O)O)CC2 [Example 676, (1r,2′S,4S)-4-(3-chloroanilino)-2′-[(2R)-3-{[(5R,8R)-8-hydroxy-5-methyl-5,6,7,8-tetrahydroquinolin-4-yl]oxy}-2-methylpropyl]-2′,3′-dihydrospiro[cyclohexane-1,1′-indene]-4-carboxylic acid]		65.6
0.204	CC(O)c1ccc2c(c1)[C@]1(CC[C@@](Nc3cccc(Cl)c3)(C(=O)O)CC1)[C@@H](C[C@@H](C)COc1ccnc3c1[C@H](C)CC[C@H]3C)C2 (stereo partly drawn) [Example 865, (1r,2′S,4S)-4-(3-chloroanilino)-2′-[(2R)-3-{[(5R,8R)-5,8-dimethyl-5,6,7,8-tetrahydroquinolin-4-yl]oxy}-2-methylpropyl]-6′-(1-hydroxyethyl)-2′,3′-dihydrospiro[cyclohexane-1,1′-indene]-4-carboxylic acid]	45.9	
1.39	C[C@@H](COc1ccnc2c1[C@H](C)CC[C@H]2C)C[C@H]1Cc2ccccc2[C@]12CC[C@@](Nc1cccc(Cl)c1)(C(=O)O)CC2 [Example 660, (1r,2′S,4S)-4-(3-chloroanilino)-2′-[(2R)-3-{[(5R,8R)-5,8-dimethyl-5,6,7,8-tetrahydroquinolin-4-yl]oxy}-2-methylpropyl]-2′,3′-dihydrospiro[cyclohexane-1,1′-indene]-4-carboxylic acid]	62	
3.01	C[C@@H]1Cc2nccc(OC[C@H](C)C[C@H]3Cc4ccccc4[C@]34CC[C@@](Nc3cccc(Cl)c3)(C(=O)O)CC4)c2[C@H](C)C1 [Example 665, (1r,2′S,4S)-4-(3-chloroanilino)-2′-[(2R)-3-{[(5R,7S)-5,7-dimethyl-5,6,7,8-tetrahydroquinolin-4-yl]oxy}-2-methylpropyl]-2′,3′-dihydrospiro[cyclohexane-1,1′-indene]-4-carboxylic acid]	276	
4.25	C[C@@H](COc1ccnc2c1[C@@H](C)CC[C@H]2F)C[C@H]1Cc2ccccc2[C@]12CC[C@@](Nc1cccc(Cl)c1)(C(=O)O)CC2 [Example 687, (1r,2′S,4S)-4-(3-chloroanilino)-2′-[(2R)-3-{[(5R,8S)-8-fluoro-5-methyl-5,6,7,8-tetrahydroquinolin-4-yl]oxy}-2-methylpropyl]-2′,3′-dihydrospiro[cyclohexane-1,1′-indene]-4-carboxylic acid]	600	
1.75	C[C@@H](COc1ccnc2c1[C@H](C)CCC2(F)F)C[C@H]1Cc2ccccc2[C@]12CC[C@@](Nc1cccc(Cl)c1)(C(=O)O)CC2 [Example 692, (1r,2′S,4S)-4-(3-chloroanilino)-2′-[(2R)-3-{[(5R)-8,8-difluoro-5-methyl-5,6,7,8-tetrahydroquinolin-4-yl]oxy}-2-methylpropyl]-2′,3′-dihydrospiro[cyclohexane-1,1′-indene]-4-carboxylic acid]	132	
0.0909	CC(O)c1ccc2c(c1)[C@]1(CC[C@@](Nc3cccc(Cl)c3)(C(=O)O)CC1)[C@@H](C[C@@H](C)COc1ccnc3c1[C@H](C)CC[C@H]3O)C2 (single isomer, unassigned) [Example 861]	56.3	
